Read-outs that look alike come from different tables or passages of the source. Marks after values point to notes of the source that are not given here.
Columns and labels:
[1] = cited from earlier work
[2] = cited from earlier work; remark: listed apart in the source
[3] = Crystal structure conformation (main-chain dihedral angles, n→π* geometry); type: physicochemical; details: crystalline Ac-Mop-OMe
Method: [^13CH3]Ac-Mop-OMe (10 mg) was dissolved in 1:1 CH2Cl2/hexanes (1 mL) and the solution was allowed to stand at room temperature in a loosely-capped vial. Slow evaporation afforded crystals suitable for X-ray analysis after ˜72 h (all solvent had evaporated).
A colorless crystal with approximate dimensions 0.49×0.41×0.23 mm^3 was selected under oil under ambient conditions and attached to the tip of a nylon loop. The crystal was mounted in a stream of cold N2 (g) at 100(2) K and centered in the X-ray beam by using a video camera.
The crystal evaluation and data collection were performed on a Bruker CCD-1000 diffractometer with Mo Kα (λ=0.71073 Å) radiation and the diffractometer-to-crystal distance of 4.9 cm.
The initial cell constants were obtained from three series of scans at different starting angles. Each series consisted of 20 frames collected at intervals of 0.3° in a 6° range about ω with the exposure time of 10 s per frame. A total of 69 reflections were obtained. The reflections were indexed successfully by an automated indexing routine built in the SMART program. The final cell constants were calculated from a set of 4805 strong reflections from the actual data collection.
Data were collected by using the full-sphere data collection routine. The reciprocal space was surveyed to the extent of a full sphere to a resolution of 0.80 Å. A total of 6155 data were harvested by collecting three sets of frames with 0.3° scans in ω and ? with an exposure time 10 s per frame. These highly redundant datasets were corrected for Lorentz and polarization effects. The absorption correction was based on fitting a function to the empirical transmission surface as sampled by multiple equivalent measurements. (Bruker-AXS. (2000-2003) SADABS V.2.05, SAINT V.6.22, SHELXTL V.6.10 & SMART 5.622 Software Reference Manuals. Bruker-AXS, Madison, Wis., USA.)
The systematic absences in the diffraction data were consistent for the space groups P21 and P21/m.
A successful solution by the direct methods provided most non-hydrogen atoms from the E-map. The remaining non-hydrogen atoms were located in an alternating series of least-squares cycles and difference Fourier maps. All non-hydrogen atoms were refined with anisotropic displacement coefficients. All hydrogen atoms were found in the difference map and refined independently. The absolute configuration was assigned from the known synthetic procedure.
The final difference Fourier map was featureless. The molecular diagram is drawn with 50% probability ellipsoids as depicted in FIG. 2.

[4] = Thermal denaturation of collagen triple helices by circular dichroism (Tm); type: physicochemical; details: for Tm, water / Tm, EG(aq): circular dichroism, peptide 200 μM; for Tm, water: 50 mM HOAc (pH 3.0); for Tm, EG(aq): 2:1 EG/50 mM HOAc (pH 3.0)
Method: CD spectra were recorded with an Aviv 202SF circular dichroism spectrometer. Spectra were recorded on peptide solutions (100 μM in 50 mM HOAc (pH 2.9)) that had been incubated at ≦4° C. for ≧48 h in 1-nm increments with a 3-s averaging time, 1-nm bandpass, and 0.1-cm pathlength. Samples for thermal stability experiments were generated by incubating peptide solutions (200 μM) at 4° C. for ≧48 h. The solutions were then heated from 4° C. to 97° C. (for samples in 50 mM HOAc (aq) (pH 2.9)) or to 106° C. (for samples in 2:1 ethylene glycol/50 mM HOAc(aq)) at 3-° C. increments with a 5-min equilibration at each step. The ellipticity at 225 nm was monitored with a 5-s averaging time, 1-nm bandpass, and 0.1-cm pathlength. Values of Tm were determined by fitting the data to a two-state model. (See Becktel and Schellman Biopolymers 26:1859-1877 (1987)).

[5] = cited from earlier work; for ΔG: values from Nishi et al. (2005) (Kobayashi and coworkers); for ΔG / TΔS / ΔH: normalized to T°=71.9° C.; for TΔS / ΔH: values from Nishi et al. (2005)
[6] = value from Holmgen et al. Nature 392:666-667 (1998); cited from earlier work
[7] = compared with (ProProGly)10 chains; Chopra and Ananthanarayanan (1982); cited from earlier work
[8] = Differential scanning calorimetry (DSC) of triple-helix unfolding; type: physicochemical; details: for Tm (DSC exotherm maxima): scan rate 15° C./h; for TΔS / ΔG / ΔH: DSC
Method: DSC measurements were conducted on a VP-DSC instrument (MicroCal, LLC, Northampton, Mass.). For each peptide, an instrument baseline was established by filling both the sample and the reference cell with degassed 50 mM HOAc(aq) (pH 2.9) and scanning from 5-98° C. at 15° C./h until at least 3 consecutive overlaying scans were observed. The last of these scans was used as the baseline for each subsequent peptide scan.
Peptide solutions (˜0.5 mg/mL in 50 mM HOAc(aq)), incubated at 4° C. for ≧48 h, were degassed and loaded into the sample cell (without removing the reference solution) during the cool down from the final baseline scan (at ˜15° C.). Samples were scanned from 5-98° C. at 15° C./h; the first scan of each sample was used in the analysis. […] Nevertheless, a second run with a fresh sample (incubated at 4° C. for ≧48 h) gave a trace that overlaid with the initial scan for both peptides.
After DSC measurements, peptide concentrations were determined by quantitative amino acid analysis (Scientific Research Consortium, Inc., St. Paul, Minn.). Peptide concentrations of 231 μM for (ProHypGly)10 and 129 μM for (ProMopGly)10 were calculated from the average of Gly and Pro content.
Data processing was done using the MicroCal software in the Origin 7 program (OriginLab Corp., Northampton, Mass.). For each sample, the appropriate reference scan was subtracted from the sample scan and the data were normalized to the monomer concentrations (determined above).
Values of ΔH (per mole of monomer) were obtained by direct integration of the DSC exotherms. Using ΔH and the exotherm maxima as the Tm (64.3° C. for (ProHypGly)10 and 73.8° C. for (ProMopGly)10), TΔS (at Tm) was calculated with the equation: Tm=ΔH/(ΔS+R·1n(0.75c^2)), where c is the concentration of monomeric peptide. (See Engel and Bäichinger P. Top. Curr. Chem. 247:7-33 (2005)). Values of ΔG were then calculated with the equation: ΔG=ΔH−TΔS. […] (See Nishi et. al. (2005)). The data of Kobayashi and coworkers were normalized to T°=71.9° C. (which is the T° for (ProProGly)10, i.e. where ΔG=0). Because our thermodynamic data for (ProMopGly)10 were determined at nearly the same temperature (73.8° C.), comparisons of the three peptides are meaningful.

[9] = Sakakibara et al. (1973); cited from earlier work
[10] = values from Bretscher et al. (2001)
[11] = mean values from two molecules in ref 18
[12] = mean values for Hyp in 13 (Bella et al. 1994; Miles and Burjanadze 2001)

Molecule: COC(=O)[C@@H]1C[C@@H](F)CN1C(C)=O [Ac-Flp-OMe]
- Kt/c [1, 10]: 6.7
- φ [2, 11]: −55.0 °
- ψ [2, 11]: 140.5 °
- ω [2, 11]: −178.9 °

Molecule: COC(=O)[C@@H]1C[C@@H](O)CN1C(C)=O [Ac-Hyp-OMe]
- Kt/c [1, 10]: 6.1
- φ [2, 11]: −57.0 °
- ψ [2, 11]: 150.8 °
- ω [2, 11]: −178.8 °

Molecule: COC(=O)[C@@H]1C[C@@H](OC)CN1C(C)=O [Ac-Mop-OMe, N-(2-^13CH3-Acetyl)-(2S,4R)-4-methoxyproline methyl ester]
- φ [3]: −58.1 ± 0.1 °
- ψ [3]: 147.7 ± 0.1 °
- ω [3]: −179.7 ± 0.1 °
- Oi-1...C′i=Oi angle ([3]; n→π* interaction): 94.6 °
- Oi-1...C′i=Oi distance ([3]; n→π* interaction): 2.84 Å

Molecule: (ProEopGly)10
- triple-helix stability compared with Hyp (or Mop) ([4]; in water, no value or method printed): less stable

Molecule: (ProFlpGly)10 [Peptide 3]
- ΔG [5]: −3.3^c kcal/mol
- TΔS [5]: −17.2^c kcal/mol
- ΔH [5]: −20.5^c kcal/mol
- Tm, water [6]: 91^d ° C.

Molecule: (ProHypGly)10 [Peptide 1]
- Tm, water [4]: 62.0 °C
- Tm, EG(aq) [4]: 77.1 °C
- rate at which chains fold into a triple helix [7]: substantially greater
- Kt/c ([1]; Hyp in 13 (triple helix)): ∞
- φ [2, 12]: −59.6 °
- ψ [2, 12]: 149.8 °
- ω [2, 12]: 178.5 °
- Tm (DSC exotherm maxima) ([8]; 50 mM HOAc): 64.3 °C
- TΔS ([8]; at 64.3° C.): -27.3 kcal/mol
- ΔG ([8]; at 64.3° C.): -2.2 kcal/mol
- ΔH ([8]; at 64.3° C.): -29.5 kcal/mol
- ΔG [5]: −2.0^c kcal/mol
- ΔG ([5]; listed as (ProHypGly)10): -2.0 kcal/mol
- TΔS [5]: −33.2^c kcal/mol
- ΔH [5]: −35.2^c kcal/mol
- melting temperature of a triple helix [9]: 58 °C

Molecule: (ProMopGly)10 [Peptide 2]
- stability of triple helix compared with triple helical peptide 1 ([4]; aqueous ethylene glycol): more stable
- Tm, water [4]: 70.1 °C
- Tm, EG(aq) [4]: 89.1 °C
- conformational stability of triple helices compared with those of 1 ([4]; in water (50 mM HOAc)): substantially more conformational stability
- Tm (DSC exotherm maxima) ([8]; 50 mM HOAc): 73.8 °C
- TΔS ([8]; at Tm 73.8° C., calculated from ΔH and Tm): -25.2 kcal/mol
- ΔH ([8]; per mole of monomer, 50 mM HOAc, at 73.8° C.): -27.9 kcal/mol
- ΔG ([8]; ΔG=ΔH−TΔS, at 73.8° C.): -2.7 kcal/mol

Molecule: (ProProGly)10
- T° (where ΔG=0) ([5]; data of Kobayashi and coworkers (Nishi et al. 2005)): 71.9 °C
- melting temperature of a triple helix [9]: 24 °C

Source: patent US7858741B2, “Stabilization of the collagen triple helix by O-methylation of hydroxyproline residues” (Wisconsin Alumni Research Foundation, priority 2008, dated 2010)
